Experimental data: ChEMBL document CHEMBL5120904, “Zelkovamycins F and G, Cyclopeptides with Cα-Methyl-threonine Residues, from an Endophytic Kitasatospora sp” (J Nat Prod, 2022)
Values after ≈ are worked out from the molar mass of the structure shown. *1 amine or outer side, *2 acyl side, *3 side chain or, on linkers, in order; H or OH if unused. Where a SMILES comes first, the peptide text is derived from it. [ ]: non-standard residue; d: D form. dAla(ψthiazole) = C[C@@H](N[*:1])c1nc(C(=O)[*:2])cs1; Trp(4-OMe) = COc1cccc2[nH]cc(C[C@H](N)C(=O)O)c12; X1 = CC(=O)[C@](C)(N[*:1])C(=O)[*:2]; Dhb = C/C=C(\N)C(=O)O; Sar = CNCC(=O)O

Tests used:
[1] = Cytotoxicity against human Huh7.5 cells; type: toxicity, cell-based, Huh-7.5
[2] = Selectivity index, ratio of CC50 for human Huh7.5 cells to EC50 for antiviral activity against HCV infected in human Huh7.5 cells; type: toxicity, cell-based; conditions: read-out: Ratio CC50/EC50
[3] = system: Hepatitis C virus; assay: Antiviral activity against HCV infected in human Huh7.5 cells assessed as reduction in viral RNA level measured after 72 hrs by RT-PCR analysis; type: functional, organism-based, Hepacivirus hominis; conditions: Huh7.5, 72 h
[4] = system: Influenza A virus; assay: Antiviral activity against Influenza A virus A/WSN/33(H1N1) infected in HEK293T cells pretreated for 2 hrs followed by viral infection and measured after 24 hrs by Gaussia luciferase assay; type: functional, organism-based; conditions: HEK-293T
[5] = system: Morganella morganii; assay: Antibacterial activity against multidrug-resistant Morganella morganii KL-225 measured after 24 hrs by broth microdilution method; type: functional
[6] = system: Staphylococcus aureus; assay: Antibacterial activity against methicillin-resistant Staphylococcus aureus R6101 measured after 24 hrs by broth microdilution method; type: functional
[7] = system: Klebsiella pneumoniae; assay: Antibacterial activity against Klebsiella pneumoniae ATCC700603 measured after 24 hrs by broth microdilution method; type: functional
[8] = system: Bacillus subtilis; assay: Antibacterial activity against Bacillus subtilis ATCC6633 measured after 24 hrs by broth microdilution method; type: functional
[9] = system: Staphylococcus epidermidis; assay: Antibacterial activity against Staphylococcus epidermidis ATCC12228 measured after 24 hrs by broth microdilution method; type: functional
[10] = system: Pseudomonas aeruginosa; assay: Antibacterial activity against Pseudomonas aeruginosa ATCC27853 measured after 24 hrs by broth microdilution method; type: functional
[11] = system: Escherichia coli; assay: Antibacterial activity against Escherichia coli measured after 24 hrs by broth microdilution method; type: functional
[12] = system: Morganella morganii; assay: Antibacterial activity against beta-lactamase-producing Morganella morganii ATCC25830 measured after 24 hrs by broth microdilution method; type: functional
[13] = system: Staphylococcus aureus; assay: Antibacterial activity against methicillin-sensitive Staphylococcus aureus ATCC29213 measured after 24 hrs by broth microdilution method; type: functional
[14] = system: Staphylococcus aureus; assay: Antibacterial activity against methicillin-resistant Staphylococcus aureus ATCC33591 measured after 24 hrs by broth microdilution method; type: functional

Compound	CC50 [1]	selectivity ratio [2]	EC50 [3]	EC50 [4]	MIC [5]	MIC [6]	MIC [7]	MIC [8]	MIC [9]	MIC [10]	MIC [11]	MIC [12]	MIC [13]	MIC [14]
CC(C)OC(=O)[C@H](C)N[P@@](=O)(OC[C@H]1O[C@@H](n2ccc(=O)[nH]c2=O)[C@](C)(F)[C@@H]1O)Oc1ccccc1	> 200 µM	> 3330	0.06 µM	–	–	–	–	–	–	–	–	–	–	–
C/C=C1\NC(=O)[C@@H](C)NC(=O)CNC(=O)[C@@H](CC)NC(=O)[C@H](Cc2c[nH]c3cccc(OC)c23)NC(=O)c2csc(n2)[C@@H](C)NC(=O)CN(C)C1=O	–	–	–	> 50 µM	> 160 mg/L	> 160 mg/L	> 160 mg/L	> 160 mg/L	> 160 mg/L	> 160 mg/L	> 160 mg/L	> 160 mg/L	> 160 mg/L	> 160 mg/L
C/C=C1\NC(=O)[C@@H](CC)NC(=O)CNC(=O)[C@](C)(C(C)=O)NC(=O)[C@H](Cc2c[nH]c3cccc(OC)c23)NC(=O)c2csc(n2)[C@@H](C)NC(=O)CN(C)C1=O	> 111 µM	> 17.7	6.3 µM	–	20 mg/L (≈ 25.6 µM)	10 mg/L (≈ 12.8 µM)	> 160 mg/L	> 160 mg/L	2.5 mg/L (≈ 3.21 µM)	> 160 mg/L	> 160 mg/L	20 mg/L (≈ 25.6 µM)	2.5 mg/L (≈ 3.21 µM)	0.31 mg/L (≈ 0.397 µM)
C/C=C1\NC(=O)[C@@H](CC)NC(=O)CNC(=O)[C@](C)([C@@H](C)O)NC(=O)[C@H](Cc2c[nH]c3cccc(OC)c23)NC(=O)c2csc(n2)[C@@H](C)NC(=O)CN(C)C1=O	–	–	–	> 50 µM	> 160 mg/L	40 mg/L (≈ 51.2 µM)	> 160 mg/L	> 160 mg/L	0.62 mg/L (≈ 0.793 µM)	> 160 mg/L	> 160 mg/L	160 mg/L (≈ 205 µM)	10 mg/L (≈ 12.8 µM)	1.25 mg/L (≈ 1.6 µM)
C/C=C1\NC(=O)[C@@H](CC)NC(=O)CNC(=O)[C@](C)([C@H](C)O)NC(=O)[C@H](Cc2c[nH]c3cccc(OC)c23)NC(=O)c2csc(n2)[C@@H](C)NC(=O)CN(C)C1=O	> 200 µM	> 2	98.6 µM	> 50 µM	160 mg/L (≈ 205 µM)	40 mg/L (≈ 51.2 µM)	> 160 mg/L	> 160 mg/L	1.25 mg/L (≈ 1.6 µM)	> 160 mg/L	> 160 mg/L	80 mg/L (≈ 102 µM)	20 mg/L (≈ 25.6 µM)	2.5 mg/L (≈ 3.2 µM)
C/C=C1\NC(=O)[C@@H](C)NC(=O)CNC(=O)[C@](C)(C(C)=O)NC(=O)[C@H](Cc2c[nH]c3cccc(OC)c23)NC(=O)c2csc(n2)[C@@H](C)NC(=O)CNC1=O	> 200 µM	> 4.3	46.9 µM	> 50 µM	> 160 mg/L	> 160 mg/L	> 160 mg/L	> 160 mg/L	> 160 mg/L	> 160 mg/L	> 160 mg/L	> 160 mg/L	> 160 mg/L	> 160 mg/L
C/C=C1\NC(=O)[C@@H](CC)NC(=O)CNC(=O)[C@](C)(C(C)=O)NC(=O)[C@H](Cc2c[nH]c3cccc(OC)c23)NC(=O)c2csc(n2)[C@@H](C)NC(=O)CNC1=O	> 106 µM	> 1.1	98.5 µM	> 50 µM	> 160 mg/L	> 160 mg/L	> 160 mg/L	> 160 mg/L	160 mg/L (≈ 209 µM)	> 160 mg/L	> 160 mg/L	> 160 mg/L	> 160 mg/L	160 mg/L (≈ 209 µM)
C=C1NC(=O)[C@@H](CC)NC(=O)CNC(=O)[C@](C)(C(C)=O)NC(=O)[C@H](Cc2c[nH]c3cccc(OC)c23)NC(=O)c2csc(n2)[C@@H](C)NC(=O)CN(C)C1=O	–	–	–	> 50 µM	40 mg/L (≈ 52.2 µM)	40 mg/L (≈ 52.2 µM)	> 160 mg/L	> 160 mg/L	5 mg/L (≈ 6.53 µM)	> 160 mg/L	> 160 mg/L	40 mg/L (≈ 52.2 µM)	10 mg/L (≈ 13.1 µM)	1.25 mg/L (≈ 1.63 µM)
C/C=C1\NC(=O)[C@@H](C)NC(=O)CNC(=O)[C@](C)(C(C)=O)NC(=O)[C@H](Cc2c[nH]c3cccc(OC)c23)NC(=O)c2csc(n2)[C@@H](C)NC(=O)CN(C)C1=O (cyclo([Dhb][Sar][dAla(ψthiazole)][Trp(4-OMe)][X1]G[dA]))	> 36.5 µM	> 16.6	2.2 µM	–	–	–	–	–	–	–	–	–	–	–
C[C@H]1COc2c(N3CCN(C)CC3)c(F)cc3c(=O)c(C(=O)O)cn1c23.C[C@H]1COc2c(N3CCN(C)CC3)c(F)cc3c(=O)c(C(=O)O)cn1c23.O [LEVOFLOXACIN]	–	–	–	–	5 mg/L	5 mg/L	–	< 0.078 mg/L	0.16 mg/L	–	–	< 0.078 mg/L	0.078 mg/L	0.078 mg/L
Cc1onc(-c2ccccc2)c1C(=O)N[C@@H]1C(=O)N2[C@@H]1SC(C)(C)[C@@H]2C(=O)O [OXACILLIN]	–	–	–	–	> 160 mg/L	> 160 mg/L	–	< 0.078 mg/L	0.16 mg/L (≈ 0.399 µM)	–	–	40 mg/L (≈ 99.6 µM)	0.078 mg/L (≈ 0.194 µM)	80 mg/L (≈ 199 µM)
CO[C@H]1/C=C/O[C@@]2(C)Oc3c(C)c(O)c4c(O)c(c(/C=N/N5CCN(C)CC5)c(O)c4c3C2=O)NC(=O)/C(C)=C\C=C\[C@H](C)[C@H](O)[C@@H](C)[C@@H](O)[C@@H](C)[C@H](OC(C)=O)[C@@H]1C [RIFAMPIN]	–	–	–	–	10 mg/L (≈ 12.2 µM)	10 mg/L (≈ 12.2 µM)	–	< 0.078 mg/L	< 0.078 mg/L	–	–	10 mg/L (≈ 12.2 µM)	< 0.078 mg/L	< 0.078 mg/L
CN[C@H](CC(C)C)C(=O)N[C@H]1C(=O)N[C@@H](CC(N)=O)C(=O)N[C@H]2C(=O)N[C@H]3C(=O)N[C@H](C(=O)N[C@H](C(=O)O)c4cc(O)cc(O)c4-c4cc3ccc4O)[C@H](O)c3ccc(c(Cl)c3)Oc3cc2cc(c3O[C@@H]2O[C@H](CO)[C@@H](O)[C@H](O)[C@H]2O[C@H]2C[C@](C)(N)[C@H](O)[C@H](C)O2)Oc2ccc(cc2Cl)[C@H]1O [VANCOMYCIN]	–	–	–	–	> 160 mg/L	> 160 mg/L	–	< 0.078 mg/L	1.25 mg/L (≈ 0.863 µM)	–	–	> 160 mg/L	1.25 mg/L (≈ 0.863 µM)	0.62 mg/L (≈ 0.428 µM)
